Our source for the inhibition values is article PMC7180948, “New Insights into 4-Anilinoquinazolines as Inhibitors of Cardiac Troponin I–Interacting Kinase (TNNi3K)” (Molecules, 2020).

What all share (experiment): biochemical
Holding throughout (design): KINOMEscan competition binding panel (Eurofins DiscoverX), single concentration, % inhibition
Settings in all cases: read-out: 7 at 1 µM % inhibition

One assay has as its target FLT3(ITD,F691L) (Homo sapiens, UniProt P36888, F691L/ITD). In outline: (§1)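 Compounds were submitted at 1 µM to a KINOMEscan assay covering more than 400 human kinases. The screen served to define the selectivity profile.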
In another assay the target is FYN (Homo sapiens, UniProt P06241). In outline:
as §1

A further assay concerns the target PHKG2 (Homo sapiens, UniProt P15735). In outline: as §1
In assay [1] the target is T1, RSK4(Kin.Dom.2-C-terminal) (Homo sapiens, UniProt Q9UK32).
T1 construct: gene RPS6KA6; Kin.Dom.2-C-terminal
In a few lines: as §1

The next assay concerns the target SNRK (Homo sapiens, UniProt Q9NRH2). In outline: as §1
The target in the next assay is T2, YANK2 (Homo sapiens, UniProt Q9NY57).
T2 construct: gene STK32B
In outline:
as §1

The next assay addresses SBK1 (Homo sapiens, UniProt Q52WX2). In a few lines:
as §1

Another assay concerns the target GRK4 (Homo sapiens, UniProt P32298). In a few lines:
as §1

The target of another assay is MARK2 (Homo sapiens, UniProt Q7KZI7). In a few lines: as §1
The target in a further assay is FLT3-autoinhibited (Homo sapiens, UniProt P36888). In outline: as §1
For a further assay, the target named is PKN2 (Homo sapiens, UniProt Q16513). In outline: as §1
Assay [2] has as its target T3, ABL1(F317I)-phosphorylated (Homo sapiens, UniProt P00519, F317I).
T3 construct: phosphorylated
In outline:
as §1

Another assay has as its target T4, LOK (Homo sapiens, UniProt O94804).
T4 construct: gene STK10
In a few lines:
as §1

A further assay has as its target IRAK4 (Homo sapiens, UniProt Q9NWZ3). In outline: as §1
Another assay concerns the target MTOR (Homo sapiens, UniProt P42345). In outline:
as §1

Another assay addresses T5, S6K1 (Homo sapiens, UniProt P23443).
T5 construct: gene RPS6KB1
In outline:
as §1

The next assay addresses PIK3CA(E545A) (Homo sapiens, UniProt P42336, E545A). In a few lines: as §1
A further assay has as its target FLT4 (Homo sapiens, UniProt P35916). In a few lines: as §1
The target in another assay is EPHA8 (Homo sapiens, UniProt P29322). In a few lines: as §1
For the next assay, the target named is WEE1 (Homo sapiens, UniProt P30291). In outline: as §1
Another assay concerns the target MAPKAPK2 (Homo sapiens, UniProt P49137). In outline:
as §1

The next assay concerns the target PRKD2 (Homo sapiens, UniProt Q9BZL6). In a few lines:
as §1

Another assay concerns the target PRKD1 (Homo sapiens, UniProt Q15139). In a few lines:
as §1

The target in a further assay is MARK3 (Homo sapiens, UniProt P27448). In outline: as §1
Chain of MARK3 (P27448 whole entry): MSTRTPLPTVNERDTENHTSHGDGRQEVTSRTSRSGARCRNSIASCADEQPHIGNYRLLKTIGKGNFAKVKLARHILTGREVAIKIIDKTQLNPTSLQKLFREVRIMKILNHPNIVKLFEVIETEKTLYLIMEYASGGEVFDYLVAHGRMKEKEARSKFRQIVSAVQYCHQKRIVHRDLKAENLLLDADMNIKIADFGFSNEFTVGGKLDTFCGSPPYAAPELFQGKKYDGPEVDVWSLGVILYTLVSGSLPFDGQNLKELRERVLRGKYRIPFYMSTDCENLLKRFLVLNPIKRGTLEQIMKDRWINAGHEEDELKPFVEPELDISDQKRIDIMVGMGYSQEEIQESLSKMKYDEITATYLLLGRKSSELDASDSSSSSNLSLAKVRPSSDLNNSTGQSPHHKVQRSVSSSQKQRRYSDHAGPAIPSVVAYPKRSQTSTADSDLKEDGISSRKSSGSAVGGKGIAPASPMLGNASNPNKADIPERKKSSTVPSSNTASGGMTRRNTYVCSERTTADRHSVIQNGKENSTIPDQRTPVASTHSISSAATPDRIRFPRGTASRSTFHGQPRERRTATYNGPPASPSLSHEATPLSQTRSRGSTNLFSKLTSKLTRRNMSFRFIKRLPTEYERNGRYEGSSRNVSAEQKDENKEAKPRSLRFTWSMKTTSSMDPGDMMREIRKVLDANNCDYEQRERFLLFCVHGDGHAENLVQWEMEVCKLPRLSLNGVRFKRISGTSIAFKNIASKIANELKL

Chain of FLT4 (P35916 whole entry): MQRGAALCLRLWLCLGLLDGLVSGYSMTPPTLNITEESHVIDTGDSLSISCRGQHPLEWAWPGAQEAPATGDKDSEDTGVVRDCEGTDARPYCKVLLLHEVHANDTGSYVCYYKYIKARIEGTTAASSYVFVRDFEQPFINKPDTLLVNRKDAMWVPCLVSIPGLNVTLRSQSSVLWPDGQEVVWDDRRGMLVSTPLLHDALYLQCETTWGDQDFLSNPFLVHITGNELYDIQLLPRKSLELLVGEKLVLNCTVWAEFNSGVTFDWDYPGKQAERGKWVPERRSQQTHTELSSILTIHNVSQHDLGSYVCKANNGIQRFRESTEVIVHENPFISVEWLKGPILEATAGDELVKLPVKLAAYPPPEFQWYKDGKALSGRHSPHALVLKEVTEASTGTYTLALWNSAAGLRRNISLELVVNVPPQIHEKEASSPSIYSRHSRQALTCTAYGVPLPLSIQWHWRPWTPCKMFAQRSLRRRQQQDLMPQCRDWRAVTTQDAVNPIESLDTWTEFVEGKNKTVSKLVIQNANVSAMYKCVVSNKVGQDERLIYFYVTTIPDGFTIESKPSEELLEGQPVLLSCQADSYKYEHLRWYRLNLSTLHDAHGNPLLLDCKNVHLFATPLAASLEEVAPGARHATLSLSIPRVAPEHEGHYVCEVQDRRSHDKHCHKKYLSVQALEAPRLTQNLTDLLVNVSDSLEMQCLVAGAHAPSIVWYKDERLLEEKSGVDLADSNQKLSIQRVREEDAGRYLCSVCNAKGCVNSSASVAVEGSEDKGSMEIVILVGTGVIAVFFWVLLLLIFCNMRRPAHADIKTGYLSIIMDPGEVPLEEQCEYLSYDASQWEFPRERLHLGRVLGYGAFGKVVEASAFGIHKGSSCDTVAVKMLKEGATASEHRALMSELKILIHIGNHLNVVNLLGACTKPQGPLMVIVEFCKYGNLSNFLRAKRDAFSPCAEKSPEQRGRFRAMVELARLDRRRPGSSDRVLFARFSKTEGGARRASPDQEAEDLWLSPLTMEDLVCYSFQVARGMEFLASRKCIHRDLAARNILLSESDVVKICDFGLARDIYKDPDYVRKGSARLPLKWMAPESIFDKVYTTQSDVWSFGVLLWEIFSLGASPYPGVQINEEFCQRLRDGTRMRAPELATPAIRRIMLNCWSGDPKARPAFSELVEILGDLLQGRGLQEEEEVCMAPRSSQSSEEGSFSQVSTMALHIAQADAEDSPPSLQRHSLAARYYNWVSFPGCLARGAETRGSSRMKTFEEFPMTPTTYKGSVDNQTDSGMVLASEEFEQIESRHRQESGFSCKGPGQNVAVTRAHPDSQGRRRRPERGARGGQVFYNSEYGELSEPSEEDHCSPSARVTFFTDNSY
Chain of WEE1 (P30291 whole entry): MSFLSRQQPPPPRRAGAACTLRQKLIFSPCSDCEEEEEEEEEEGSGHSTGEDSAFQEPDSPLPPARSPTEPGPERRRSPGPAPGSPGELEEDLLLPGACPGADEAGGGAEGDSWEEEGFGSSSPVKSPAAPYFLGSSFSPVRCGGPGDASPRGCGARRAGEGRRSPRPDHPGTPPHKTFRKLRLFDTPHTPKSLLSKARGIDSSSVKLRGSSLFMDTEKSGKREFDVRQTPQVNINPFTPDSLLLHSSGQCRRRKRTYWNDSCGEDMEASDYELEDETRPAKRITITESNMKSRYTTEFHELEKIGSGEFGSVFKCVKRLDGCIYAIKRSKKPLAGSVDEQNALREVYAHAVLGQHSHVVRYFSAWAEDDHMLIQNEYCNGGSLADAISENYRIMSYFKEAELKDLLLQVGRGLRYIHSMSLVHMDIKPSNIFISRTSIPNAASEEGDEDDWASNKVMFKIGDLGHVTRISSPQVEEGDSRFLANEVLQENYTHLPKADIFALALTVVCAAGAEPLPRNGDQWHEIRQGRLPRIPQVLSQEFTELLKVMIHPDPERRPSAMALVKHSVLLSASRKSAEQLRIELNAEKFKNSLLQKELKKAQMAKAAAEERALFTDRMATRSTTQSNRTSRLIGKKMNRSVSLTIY
Chain of PKN2 (Q16513 whole entry): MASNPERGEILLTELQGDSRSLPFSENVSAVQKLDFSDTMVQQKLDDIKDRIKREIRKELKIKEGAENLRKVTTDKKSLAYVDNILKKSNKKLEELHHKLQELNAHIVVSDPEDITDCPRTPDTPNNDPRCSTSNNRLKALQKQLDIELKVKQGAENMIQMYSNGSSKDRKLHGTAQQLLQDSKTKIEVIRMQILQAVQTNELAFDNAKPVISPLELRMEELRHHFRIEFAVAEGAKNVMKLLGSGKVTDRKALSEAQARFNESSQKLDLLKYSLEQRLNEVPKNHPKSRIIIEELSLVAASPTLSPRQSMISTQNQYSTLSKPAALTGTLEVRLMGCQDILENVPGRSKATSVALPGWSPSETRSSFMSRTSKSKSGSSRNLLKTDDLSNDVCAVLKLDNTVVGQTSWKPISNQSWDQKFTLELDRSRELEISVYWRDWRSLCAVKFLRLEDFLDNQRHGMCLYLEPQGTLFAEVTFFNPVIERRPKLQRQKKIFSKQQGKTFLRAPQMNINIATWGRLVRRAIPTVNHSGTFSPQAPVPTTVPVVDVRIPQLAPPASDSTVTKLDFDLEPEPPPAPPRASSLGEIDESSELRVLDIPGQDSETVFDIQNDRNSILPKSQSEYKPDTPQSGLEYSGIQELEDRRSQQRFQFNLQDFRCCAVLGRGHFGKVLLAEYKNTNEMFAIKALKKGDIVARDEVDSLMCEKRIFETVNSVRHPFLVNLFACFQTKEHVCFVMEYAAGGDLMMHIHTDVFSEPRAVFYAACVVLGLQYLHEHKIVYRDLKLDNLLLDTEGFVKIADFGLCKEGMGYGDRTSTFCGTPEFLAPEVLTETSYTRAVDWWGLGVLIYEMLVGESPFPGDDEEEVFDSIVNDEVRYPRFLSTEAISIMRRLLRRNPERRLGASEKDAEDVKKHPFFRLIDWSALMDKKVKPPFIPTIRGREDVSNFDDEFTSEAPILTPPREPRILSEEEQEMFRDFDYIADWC
Chain of GRK4 (P32298 whole entry): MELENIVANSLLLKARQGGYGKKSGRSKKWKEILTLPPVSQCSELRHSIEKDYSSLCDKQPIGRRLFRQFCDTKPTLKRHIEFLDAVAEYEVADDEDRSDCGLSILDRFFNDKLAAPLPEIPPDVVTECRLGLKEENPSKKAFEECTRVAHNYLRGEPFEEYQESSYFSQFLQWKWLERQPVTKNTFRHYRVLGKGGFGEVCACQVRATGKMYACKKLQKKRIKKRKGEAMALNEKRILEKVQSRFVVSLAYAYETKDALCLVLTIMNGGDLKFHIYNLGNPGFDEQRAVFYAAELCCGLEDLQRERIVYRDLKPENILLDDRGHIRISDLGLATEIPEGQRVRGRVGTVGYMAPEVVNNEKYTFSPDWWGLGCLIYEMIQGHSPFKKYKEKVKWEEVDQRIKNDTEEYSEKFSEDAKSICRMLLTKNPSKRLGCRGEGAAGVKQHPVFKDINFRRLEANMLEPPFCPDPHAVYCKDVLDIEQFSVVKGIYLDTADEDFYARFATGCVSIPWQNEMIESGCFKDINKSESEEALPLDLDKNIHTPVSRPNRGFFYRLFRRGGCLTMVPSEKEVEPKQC
T5 sequence (P23443 whole entry): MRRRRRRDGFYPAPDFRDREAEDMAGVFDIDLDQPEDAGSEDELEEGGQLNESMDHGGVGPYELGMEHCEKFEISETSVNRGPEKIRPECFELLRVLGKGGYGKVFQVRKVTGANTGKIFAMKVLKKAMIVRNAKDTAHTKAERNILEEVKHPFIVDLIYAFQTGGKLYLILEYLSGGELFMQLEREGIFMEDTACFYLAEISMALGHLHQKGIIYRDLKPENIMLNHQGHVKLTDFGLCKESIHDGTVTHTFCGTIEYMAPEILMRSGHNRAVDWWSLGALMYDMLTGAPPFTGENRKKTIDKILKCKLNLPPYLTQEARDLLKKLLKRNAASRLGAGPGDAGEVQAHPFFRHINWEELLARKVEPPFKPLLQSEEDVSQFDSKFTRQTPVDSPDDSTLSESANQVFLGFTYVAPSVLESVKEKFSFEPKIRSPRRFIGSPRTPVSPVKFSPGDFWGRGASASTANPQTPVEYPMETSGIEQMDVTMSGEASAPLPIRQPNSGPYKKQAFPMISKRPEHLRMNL

Take `CNS(=O)(=O)c1ccc(N(C)C)c(Nc2ncnc3cc(OC)c(OC)cc23)c1` [compound 7, 3-((6,7-dimethoxyquinazolin-4-yl)amino)-4-(dimethylamino)-N-methylbenzenesulfonamide]: the inhibition (usually the drop in the measured response relative to a control, in per cent) at 1 µM was found to be 22% at FLT3(ITD,F691L); 0% at FYN; 0% at PHKG2; 24% in assay [1]; 14% on SNRK; 0% on YANK2. For the same compound, the inhibition at 1 µM on SBK1 is 29%; at GRK4 it was 0%; on MARK2, 0%; on FLT3-autoinhibited, 12%; at PKN2, 11%; in assay [2], 40%. Moreover, the inhibition at 1 µM was 44% at LOK; 56% on IRAK4; 0% at MTOR; 23% at S6K1; 0% at PIK3CA(E545A); 0% on FLT4. For the same compound, the inhibition at 1 µM on EPHA8 was determined as 0%; on WEE1, 0%; on MAPKAPK2 it was 0%; on PRKD2, 8%; at PRKD1, 20%; at MARK3, 0%.
